Square brackets hold non-standard residues; d marks the D form. Peptide text beside a SMILES is read from it. * marks the point of attachment. Propionyl = CCC(=O)*; Mpa = O=C(O)CCS
Biological target: Stromelysin-1 (MMP-3) (Rattus norvegicus) (UniProt P03957)
Experiment: Compound was tested for its inhibitory activity against Matrix metalloprotease-3 (MMP-3) in adjuvant arthritic rat model of rheumatoid arthritis

Sequence of Stromelysin-1 (MMP-3) (Rattus norvegicus) (P03957 whole entry, looked up): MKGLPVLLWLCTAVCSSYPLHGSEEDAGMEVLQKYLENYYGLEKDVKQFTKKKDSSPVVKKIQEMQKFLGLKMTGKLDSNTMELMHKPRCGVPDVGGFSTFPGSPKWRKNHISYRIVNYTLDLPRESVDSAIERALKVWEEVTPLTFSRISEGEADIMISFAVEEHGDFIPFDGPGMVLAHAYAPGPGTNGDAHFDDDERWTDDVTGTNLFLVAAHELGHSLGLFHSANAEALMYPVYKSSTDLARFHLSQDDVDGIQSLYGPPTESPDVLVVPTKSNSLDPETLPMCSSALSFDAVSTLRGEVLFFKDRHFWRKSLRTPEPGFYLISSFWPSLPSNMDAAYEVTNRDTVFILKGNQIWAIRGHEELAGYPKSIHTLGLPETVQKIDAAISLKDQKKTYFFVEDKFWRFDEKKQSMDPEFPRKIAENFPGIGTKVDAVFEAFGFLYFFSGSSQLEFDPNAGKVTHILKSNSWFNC

IC50 [µM]	Compound
0.43	CNC(=O)[C@H](Cc1cscn1)NC(=O)[C@H](CC(C)C)NC(=O)CS [(S)-2-(2-Mercapto-acetylamino)-4-methyl-pentanoic acid ((S)-1-methylcarbamoyl-2-thiazol-4-yl-ethyl)-amide]
0.81	CNC(=O)[C@H](Cc1c[nH]c2ccccc12)NC(=O)[C@H](CSC)NC(=O)CS [(R)-N-[(S)-2-(1H-Indol-3-yl)-1-methylcarbamoyl-ethyl]-2-(2-mercapto-acetylamino)-3-methylsulfanyl-propionamide]
0.43	CNC(=O)[C@H](Cc1c[nH]c2ccccc12)NC(=O)[C@H](CC(C)C)NC(=O)CS [(S)-2-(2-Mercapto-acetylamino)-4-methyl-pentanoic acid [(S)-2-(1H-indol-3-yl)-1-methylcarbamoyl-ethyl]-amide]

Biological target: Stromelysin-1 (MMP-3) (Rattus norvegicus) (UniProt P03957)
Experiment: as above
Remark: another data set of the same source

Compound	IC50 [µM]
CNC(=O)[C@H](Cc1ccccc1)NC(=O)[C@H](C[S+](C)[O-])NC(=O)CS (stereo partly drawn) [(R)-2-(2-Mercapto-acetylamino)-3-methanesulfinyl-N-((S)-1-methylcarbamoyl-2-phenyl-ethyl)-propionamide]	8.5
CNC(=O)[C@H](Cc1ccccc1)NC(=O)[C@H](CSC)NC(=O)CS [(R)-2-(2-Mercapto-acetylamino)-N-((S)-1-methylcarbamoyl-2-phenyl-ethyl)-3-methylsulfanyl-propionamide]	0.65
CNC(=O)[C@H](Cc1ccccc1)NC(=O)[C@H](CC(C)C)NC(=O)CSC [(S)-4-Methyl-2-(2-methylsulfanyl-acetylamino)-pentanoic acid ((S)-1-methylcarbamoyl-2-phenyl-ethyl)-amide]	> 100
CNC(=O)[C@H](Cc1ccccc1)NC(=O)[C@H](CC(C)C)NC(=O)CS [(S)-2-(2-Mercapto-acetylamino)-4-methyl-pentanoic acid ((S)-1-methylcarbamoyl-2-phenyl-ethyl)-amide]	2.6
CCC(=O)N[C@@H](CC(C)C)C(=O)N[C@@H](Cc1ccccc1)C(=O)NC [(S)-4-Methyl-2-propionylamino-pentanoic acid ((S)-1-methylcarbamoyl-2-phenyl-ethyl)-amide] (Propionyl-Leu-Phe-NHMe)	> 100

Now from value to compound:

IC50 [µM]	Compound
> 100	CNC(=O)[C@H](Cc1ccccc1)NC(=O)[C@H](CC(C)C)NC(=O)CCS [(S)-2-(3-Mercapto-propionylamino)-4-methyl-pentanoic acid ((S)-1-methylcarbamoyl-2-phenyl-ethyl)-amide] ([Mpa]-Leu-Phe-NHMe)
> 100	CNC(=O)[C@H](Cc1ccccc1)NC(=O)[C@@H](NC(=O)CS)C(C)O (stereo partly drawn) [(S)-3-Hydroxy-2-(2-mercapto-acetylamino)-N-((S)-1-methylcarbamoyl-2-phenyl-ethyl)-butyramide]

— BindingDB's records for doi:10.1016/S0960-894X(97)00125-X (1997)
